Data from patent US20160338935A1, “PROCESS FOR THE PURIFICATION OF HEPARAN SULFATE AND USE THEREOF IN COSMETOLOGICAL AND DERMATOLOGICAL PREPARATIONS” (LABORATORI DERIVATI ORGANICI SPA, priority 2008, published 2016).

Assays:
[1] = test system: human keratinocytes cell cultures; assay: In vitro anti-oxidant activity against UVA: ROS reduction on human keratinocytes cell cultures; assay type: cell-based; conditions: for inhibition at 150 µg/mL: Homo sapiens, Keratinocyte, light or radiation study, Vit C 0.15 mg/ml
Experimental: In vitro Evaluation of the anti-ageing activity of cosmetic products through the investigation of their anti-oxidant and protective activity against UVA on human keratinocytes cell cultures. The antioxidant effect of HS is detected by measurement of reduction of free radicals as Reactive Oxygen Species (ROS) after exposure to 3 different UVA irradiation for 1 minute and 30 seconds (1′ 30″), for 3 minutes (3′) and for 4 minutes and 30 seconds (4′ 30″), with HS at 7 different concentrations: 0.031 mg/ml (0.0031%), 0.063 mg/ml (0.0063%), 0.125 mg/ml (0.0125%), 0.250 mg/ml (0.0250%), 0.500 mg/ml (0.0500%), 1.000 mg/ml (0.1000%) and […]. The negative control (NC) was: untreated cells (cells without any substance). The positive control (PC) was: Vitamin C (0.15 mg/ml) (0.015%).

melanoma cells B16 = assay: In vitro bleaching (whitening) activity: melanin content on melanoma cells B16; assay type: cell-based
Experimental: The in vitro whitening effect of HS was detected by measurement of melanin content on melanoma cells B16 (fibroblast-like cells able to produce melanin) after 6 days of contact with HS at 2 different concentrations: 0.1 mg/ml (0.01%) and 0.05 mg/ml (0.005%).
The negative control (NC) was represented by untreated cells (cell without any substance). The positive control (PC) was represented by cells treated with Hydroquinone 5 μg/ml (0.0005%).

fibroblast cells = assay: In vitro mitogenic activity: fibroblast cells proliferation and protein synthesis; assay type: cell-based
Experimental: The mitogenic effect of HS is detected by measurement of fibroblast cells proliferation, measurement of protein synthesis after exposure for 48 hours and 72 hours, using HS at 2 different concentrations: 0.1 mg/ml (0.01%) and 0.05 mg/ml (0.005%). The negative control (NC) is represented by untreated cells, the positive control (PC) is: EGF (Epidermal Growth Factor) (10 μg/ml) (0.001%).

basophil cells = assay: In vitro degranulation test on basophil cells (release of β-hexosaminidase); assay type: cell-based
Experimental: Basophil cells, when come in contact with irritant substances, give their biochemical response that is the secretion (by degranulation) of substances (such as histamine, leukotriens, proteolytic enzymes as hexosaminidase) that contribute to inflammatory events.
Inhibition in basophil cells degranulation is a measure of lenitive (anti-itching) effect of a substance. The in vitro lenitive effect of HS was detected by measurement of the release of β-hexosaminidase after 2 h of contact with HS at 4 different concentrations: 10 mg/ml (1%), 5 mg/ml (0.5%), 1 mg/ml (0.1%), 0.2 mg/ml (0.02%).
The negative control (NC) was represented by untreated cells (cells without any substance). The positive control (PC) was represented by basophil degranulation stimuli (by crosslinking the receptor FcεRI with a specific polyclonal antibody against to the α-chain stimulate the degranulation). The maximal stimulation (degranulation) is: cell treated with 1% Triton X-100. […]

[2] = APTT (European Pharmacopeia, 4th edition); conditions: purified heparan sulfate
Experimental: Organic sulfur, Uronic acid, Glucosamine, Optical rotation, total nitrogen and APTT were measured in accordance with the European Pharmacopeia, 4th edition. Electrophoresis was performed in accordance with R. Cappelletti et al. “A new Electrophoretic method for the separation of all Gags” Anal. Biochem. 99:311-315 (1979).

[3] = Hydroquinone 0.0005% (5 μg/ml), positive control
[4] = HS 0.005% (0.05 mg/ml), 6 days of contact
[5] = HS 0.01% (0.1 mg/ml), 6 days of contact

Which inhibition at 150 µg/mL ([1]; 1′30″ UVA) does the source give for `O=C1O[C@H]([C@@H](O)CO)C(O)=C1O` [Vit C, Vitamin C, reference compound] here?
Its inhibition at 150 µg/mL is 33.5%.

And the inhibition at 150 µg/mL ([1]; 3′00″ UVA)?
Its inhibition at 150 µg/mL is 31.4%.

What about the inhibition at 150 µg/mL ([1]; 4′30″ UVA) of the same compound?
The inhibition at 150 µg/mL was 12.7%.

With `Oc1ccc(O)cc1` [Hydroquinone, reference compound] as the compound, how does the “% Melanin Synthesis Inhibition vs NC” value (melanoma cells B16; [3]) read?
The value was 76.8%.

And the “Melanin Content (μg melanin/mg protein)” value (melanoma cells B16; [3])?
The value was 10.8 μg melanin/mg protein.

Which “% cell proliferation vs NC” value (fibroblast cells; 48 h, EGF 10 μg/ml (0.001%)) does the source give for “EGF: EGF (Epidermal Growth Factor), positive control [reference compound]” here?
Its value is 112.5%.

And the “% protein synthesis vs NC” value (fibroblast cells; 48 h, EGF 10 μg/ml (0.001%))?
Its value is 116.6%.

And the “% cell proliferation vs NC” value (fibroblast cells; 72 h, EGF 10 μg/ml (0.001%))?
Its value is 121.6%.

What about the “% protein synthesis vs NC” value (fibroblast cells; 72 h, EGF 10 μg/ml (0.001%)) of the same compound?
The value was 119.0%.

For Triton X-100 [reference compound], which “release of β-hexosaminidase OD at 450 nm” value (basophil cells; maximal stimulation: 1% Triton X-100) is on record?
Its value is 0.377 OD.

With heparan sulphate sodium salt [HS] as the compound, how does the “in vitro whitening effect” value (melanoma cells B16; 0.1 and 0.05 mg/ml, 6 days) read?
The value was “shows in vitro whitening effect”.

What about the “% Melanin Synthesis Inhibition vs NC” value (melanoma cells B16; [4]) of the same compound?
The value was 5.2%.

And the “Melanin Content (μg melanin/mg protein)” value (melanoma cells B16; [4])?
The value was 44.4 μg melanin/mg protein.

And the “% Melanin Synthesis Inhibition vs NC” value (melanoma cells B16; [5])?
The value was 10.3%.

What about the “Melanin Content (μg melanin/mg protein)” value (melanoma cells B16; [5]) of the same compound?
The value was 41.9 μg melanin/mg protein.

What about the “ROS Inhibition %” value ([1]; 1′30″ UVA, HS 0.031 mg/ml) of the same compound?
The value was 25.3%.

And the “ROS Inhibition %” value ([1]; 1′30″ UVA, HS 0.063 mg/ml)?
Its value is 25.4%.

What about the “ROS Inhibition %” value ([1]; 1′30″ UVA, HS 0.125 mg/ml) of the same compound?
The value was 23.5%.

And the “ROS Inhibition %” value ([1]; 1′30″ UVA, HS 0.250 mg/ml)?
The value was 28.0%.

And the “ROS Inhibition %” value ([1]; 1′30″ UVA, HS 0.500 mg/ml)?
Its value is 30.6%.

And the “ROS Inhibition %” value ([1]; 1′30″ UVA, HS 1.000 mg/ml)?
The value was 38.7%.

What about the “ROS Inhibition %” value ([1]; 1′30″ UVA, HS 9.000 mg/ml) of the same compound?
The value was 30.7%.

What about the “ROS Inhibition %” value ([1]; 3′00″ UVA, HS 0.031 mg/ml) of the same compound?
Its value is 20.1%.

And the “ROS Inhibition %” value ([1]; 3′00″ UVA, HS 0.063 mg/ml)?
The value was 21.8%.

And the “ROS Inhibition %” value ([1]; 3′00″ UVA, HS 0.125 mg/ml)?
The value was 14.2%.

And the “ROS Inhibition %” value ([1]; 3′00″ UVA, HS 0.250 mg/ml)?
Its value is 22.9%.

What about the “ROS Inhibition %” value ([1]; 3′00″ UVA, HS 0.500 mg/ml) of the same compound?
Its value is 29.1%.

And the “ROS Inhibition %” value ([1]; 3′00″ UVA, HS 1.000 mg/ml)?
The value was 35.7%.

And the “ROS Inhibition %” value ([1]; 3′00″ UVA, HS 9.000 mg/ml)?
Its value is 31.6%.

What about the “ROS Inhibition %” value ([1]; 4′30″ UVA, HS 0.031 mg/ml) of the same compound?
The value was 6.2%.

And the “ROS Inhibition %” value ([1]; 4′30″ UVA, HS 0.063 mg/ml)?
Its value is 13.7%.

And the “ROS Inhibition %” value ([1]; 4′30″ UVA, HS 0.125 mg/ml)?
The value was 10.3%.

What about the “ROS Inhibition %” value ([1]; 4′30″ UVA, HS 0.250 mg/ml) of the same compound?
The value was 18.1%.

What about the “ROS Inhibition %” value ([1]; 4′30″ UVA, HS 0.500 mg/ml) of the same compound?
Its value is 24.7%.

And the “ROS Inhibition %” value ([1]; 4′30″ UVA, HS 1.000 mg/ml)?
The value was 30.4%.

What about the “ROS Inhibition %” value ([1]; 4′30″ UVA, HS 9.000 mg/ml) of the same compound?
The value was 26.3%.

And the “antioxidant efficacy compared with Vitamin C” value ([1]; HS at 0.1% concentration)?
Its value is “comparable or even higher than the efficacy of Vitamin C”.

And the “release of β-hexosaminidase OD at 450 nm” value (basophil cells; HS 0.2 mg/ml + PC (degranulation stimulus))?
The value was 0.112 OD.

What about the “release of β-hexosaminidase OD at 450 nm” value (basophil cells; HS 0.2 mg/ml alone, 2 h of contact) of the same compound?
Its value is 0.061 OD.

What about the “release of β-hexosaminidase OD at 450 nm” value (basophil cells; HS 1 mg/ml + PC (degranulation stimulus)) of the same compound?
Its value is 0.110 OD.

And the “release of β-hexosaminidase OD at 450 nm” value (basophil cells; HS 1 mg/ml alone, 2 h of contact)?
Its value is 0.062 OD.

What about the “release of β-hexosaminidase OD at 450 nm” value (basophil cells; HS 5 mg/ml + PC (degranulation stimulus)) of the same compound?
Its value is 0.055 OD.

What about the “release of β-hexosaminidase OD at 450 nm” value (basophil cells; HS 5 mg/ml alone, 2 h of contact) of the same compound?
Its value is 0.059 OD.

What about the “release of β-hexosaminidase OD at 450 nm” value (basophil cells; HS 10 mg/ml + PC (degranulation stimulus)) of the same compound?
The value was 0.061 OD.

What about the “release of β-hexosaminidase OD at 450 nm” value (basophil cells; HS 10 mg/ml alone, 2 h of contact) of the same compound?
Its value is 0.066 OD.

And the “level of β-hexosaminidase with irritant substance (positive control) and HS” value (basophil cells; HS + PC, best efficacy at 0.5% and 1%)?
Its value is “decrease in a dose dependent way”.

And the “effect on basophil cells degranulation” value (basophil cells; HS alone at different concentration)?
Its value is “no effect on basophil cells degranulation”.

And the “% cell proliferation vs NC” value (fibroblast cells; 48 h, HS 0.05 mg/ml (0.005%))?
Its value is 106.7%.

And the “% protein synthesis vs NC” value (fibroblast cells; 48 h, HS 0.05 mg/ml (0.005%))?
The value was 110.2%.

And the “% cell proliferation vs NC” value (fibroblast cells; 48 h, HS 0.1 mg/ml (0.01%))?
Its value is 110.5%.

And the “% protein synthesis vs NC” value (fibroblast cells; 48 h, HS 0.1 mg/ml (0.01%))?
Its value is 103.1%.

And the “% cell proliferation vs NC” value (fibroblast cells; 72 h, HS 0.05 mg/ml (0.005%))?
Its value is 118.2%.

And the “% protein synthesis vs NC” value (fibroblast cells; 72 h, HS 0.05 mg/ml (0.005%))?
Its value is 120.4%.

What about the “% cell proliferation vs NC” value (fibroblast cells; 72 h, HS 0.1 mg/ml (0.01%)) of the same compound?
Its value is 118.1%.

And the “% protein synthesis vs NC” value (fibroblast cells; 72 h, HS 0.1 mg/ml (0.01%))?
The value was 113.2%.

And the “highest effect for cell proliferation (increase over NC)” value (fibroblast cells; 72 hour, 0.05 mg/ml)?
Its value is 18.2%.

What about the “highest effect for protein synthesis (increase over NC)” value (fibroblast cells; 72 hour, 0.05 mg/ml) of the same compound?
The value was 20.4%.

What about the APTT [2] of the same compound?
Its APTT is 6.31 U/mg.
